Laboratory results reported in paper PMC4404333, “Identification of Selective Inhibitors of the Plasmodium falciparum Hexose Transporter PfHT by Screening Focused Libraries of Anti-Malarial Compounds” (PLoS ONE, 2015).

Tests used:
[1] = test system: BJ cell line (human foreskin fibroblasts); assay: Mammalian cell drug susceptibility assay (Cell Titer Glo, 72 h); format: cell-based
Method: The BJ cell line (human foreskin fibroblasts), which express GLUT1 [26], was purchased from the ATTC and cultured according to recommendations. 1000 exponentially growing cells were plated per well (25 μL) in white polystyrene flat bottom sterile 384-well tissue culture treated plates (Corning), and incubated overnight at 37°C in a humidified 5% CO2 incubator. DMSO inhibitor stock solutions were pin-transferred (V&P Scientific) the following day. Plates were placed back in the incubator for 72 h incubation and equilibrated at room temperature for 20 min before addition of 25 μL Cell Titer Glo (Promega) to each well. Plates were shaken on an orbital shaker for 2 min at 500 rpm. Luminescence was read after 15 min on an Envision plate reader (Perkin Elmer). EC50 values were calculated with a custom program (RISE, Robust Investigation of Screening Experiments) using a four-parameter logistic equation.

[2] = test system: intraerythrocytic P. falciparum parasites; set-up: method as in PMID 12792024; conditions: read-out: IC50 growth of intraerythrocytic P. falciparum parasites in vitro; cited from earlier work
P. berghei parasites = test system: P. berghei parasites; set-up: method as in PMID 12792024; conditions: mice infected with P. berghei, 25 mg/kg (i.p.) twice daily; cited from earlier work
[3] = test system: hepatic stage and ookinetes of P. berghei; set-up: method as in PMID 21169382, PMID 21402842; conditions: cited from earlier work
PfHT = PfHT (Plasmodium falciparum, UniProt Q7KWJ5); conditions: read-out: Ki for glucose uptake by PfHT; cited from earlier work
Sequence of PfHT (Q7KWJ5 whole entry): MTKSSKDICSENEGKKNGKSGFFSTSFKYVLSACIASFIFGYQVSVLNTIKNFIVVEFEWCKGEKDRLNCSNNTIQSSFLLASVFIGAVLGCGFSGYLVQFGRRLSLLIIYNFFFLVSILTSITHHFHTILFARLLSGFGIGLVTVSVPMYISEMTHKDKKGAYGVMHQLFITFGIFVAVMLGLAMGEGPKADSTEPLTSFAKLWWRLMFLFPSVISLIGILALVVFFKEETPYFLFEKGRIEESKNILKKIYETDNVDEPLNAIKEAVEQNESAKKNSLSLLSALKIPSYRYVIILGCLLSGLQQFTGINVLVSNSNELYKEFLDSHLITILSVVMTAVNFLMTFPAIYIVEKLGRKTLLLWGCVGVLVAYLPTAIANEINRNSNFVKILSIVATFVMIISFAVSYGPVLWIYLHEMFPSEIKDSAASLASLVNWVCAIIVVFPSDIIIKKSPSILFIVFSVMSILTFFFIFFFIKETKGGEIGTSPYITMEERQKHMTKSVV

human GLUT1 = biological target: T1, human GLUT1 (Homo sapiens, UniProt P11166); conditions: 1 mM concentration; cited from earlier work
T1 sequence (P11166 1-492): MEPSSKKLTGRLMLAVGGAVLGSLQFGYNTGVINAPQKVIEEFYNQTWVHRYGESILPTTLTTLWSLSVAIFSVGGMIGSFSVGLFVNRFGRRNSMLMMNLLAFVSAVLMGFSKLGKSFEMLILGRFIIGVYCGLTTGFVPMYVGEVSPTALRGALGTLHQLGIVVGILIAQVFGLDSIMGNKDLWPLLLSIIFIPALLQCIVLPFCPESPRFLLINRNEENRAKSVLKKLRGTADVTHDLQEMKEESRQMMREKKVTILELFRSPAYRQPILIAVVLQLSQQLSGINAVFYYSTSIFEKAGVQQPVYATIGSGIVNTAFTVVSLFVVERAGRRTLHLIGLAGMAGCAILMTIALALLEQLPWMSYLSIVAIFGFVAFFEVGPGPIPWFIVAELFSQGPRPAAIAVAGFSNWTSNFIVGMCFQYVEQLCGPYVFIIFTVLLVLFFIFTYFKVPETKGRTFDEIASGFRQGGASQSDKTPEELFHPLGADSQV

CC(C)=CCC[C@]1(C)C=Cc2c(O)c3c(c(CC=C(C)C)c2O1)O[C@]12C(=C[C@@H]4C[C@H]1C(C)(C)O[C@@]2(C/C=C(/C)C(=O)O)C4=O)C3=O [Gambogic acid, gambogic acid, reference compound]
EC50 [1]: 2.5 µM

C=CCCCCCCCCCO[C@@H]([C@H](O)[C@H](O)CO)[C@@H](O)C=O [compound 3361, 3-O-((undec-10-en)-1-yl)-D-glucose]
IC50 [2]: 15.7 µM | reduction in parasitemia (P. berghei parasites): 40% | inhibition of viability of liver and mosquito stages [3]: strong inhibition of viability | Ki (PfHT): 53 µM | inhibition of GLUT1 (human GLUT1): no significant inhibition
